Experimental data from PubChem BioAssay (NCI).
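Cultured in 96-well plates, cells were exposed to test compound for 48 hours across five concentrations. At the GI50, growth is halved. Definition used: TGI = concentration required for complete inhibition of growth.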

Columns and labels:
Test in all cases: growth of human tumour cells (NCI), 48 h
K-562 leukemia = tested on: K-562 leukemia
OVCAR-8 ovarian = tested on: OVCAR-8 ovarian
T-47D breast = tested on: T-47D breast
CCRF-CEM leukemia = tested on: CCRF-CEM leukemia
UACC-257 melanoma = tested on: UACC-257 melanoma
HL-60(TB) leukemia = tested on: HL-60(TB) leukemia
HCT-116 colon = tested on: HCT-116 colon
RXF 393 renal = tested on: RXF 393 renal
HCT-15 colon = tested on: HCT-15 colon
UO-31 renal = tested on: UO-31 renal
OVCAR-4 ovarian = tested on: OVCAR-4 ovarian
NCI-H226 lung = tested on: NCI-H226 lung
TK-10 renal = tested on: TK-10 renal
SF-268 CNS = tested on: SF-268 CNS
COLO 205 colon = tested on: COLO 205 colon
RPMI-8226 leukemia = tested on: RPMI-8226 leukemia
MCF7 breast = tested on: MCF7 breast
NCI-H460 lung = tested on: NCI-H460 lung
SN12C renal = tested on: SN12C renal
NCI-H23 lung = tested on: NCI-H23 lung
SR leukemia = tested on: SR leukemia
OVCAR-5 ovarian = tested on: OVCAR-5 ovarian
HOP-62 NSCLC = tested on: HOP-62 NSCLC
HT29 colon = tested on: HT29 colon
SNB-75 CNS = tested on: SNB-75 CNS
HS 578T breast = tested on: HS 578T breast
PC-3 prostate = tested on: PC-3 prostate
SK-OV-3 ovarian = tested on: SK-OV-3 ovarian
A549 NSCLC = tested on: A549 NSCLC
U251 CNS = tested on: U251 CNS
IGROV1 ovarian = tested on: IGROV1 ovarian
NCI-H522 lung = tested on: NCI-H522 lung
OVCAR-3 ovarian = tested on: OVCAR-3 ovarian
MDA-MB-231 breast = tested on: MDA-MB-231 breast
NCI/ADR-RES ovarian = tested on: NCI/ADR-RES ovarian
SK-MEL-28 melanoma = tested on: SK-MEL-28 melanoma
MDA-MB-435 = tested on: MDA-MB-435
M14 melanoma = tested on: M14 melanoma
SF-295 CNS = tested on: SF-295 CNS
A498 renal = tested on: A498 renal
LOX IMVI melanoma = tested on: LOX IMVI melanoma
ACHN renal = tested on: ACHN renal
DU-145 prostate = tested on: DU-145 prostate
786-0 renal = tested on: 786-0 renal
SNB-19 CNS = tested on: SNB-19 CNS
KM12 colon = tested on: KM12 colon
CAKI-1 renal = tested on: CAKI-1 renal
SW-620 colon = tested on: SW-620 colon
MOLT-4 leukemia = tested on: MOLT-4 leukemia
EKVX NSCLC = tested on: EKVX NSCLC
UACC-62 melanoma = tested on: UACC-62 melanoma
MALME-3M melanoma = tested on: MALME-3M melanoma
SF-539 CNS = tested on: SF-539 CNS
SK-MEL-5 melanoma = tested on: SK-MEL-5 melanoma
HOP-92 NSCLC = tested on: HOP-92 NSCLC
BT-549 breast = tested on: BT-549 breast

COc1ccc(-c2ccc(/C=N/n3c(COc4ccc(Cl)cc4Cl)nn(CN4CCN(C)CC4)c3=S)o2)c([N+](=O)[O-])c1
GI50 (K-562 leukemia): 22.2 µM
TGI (K-562 leukemia): > 100 µM
GI50 (OVCAR-8 ovarian): 18.9 µM
TGI (OVCAR-8 ovarian): 53.5 µM
GI50 (T-47D breast): 11.7 µM
TGI (T-47D breast): 53.2 µM
GI50 (CCRF-CEM leukemia): 14.3 µM
TGI (CCRF-CEM leukemia): 47 µM
GI50 (UACC-257 melanoma): 23.5 µM
TGI (UACC-257 melanoma): 59.6 µM
GI50 (HL-60(TB) leukemia): 16.3 µM
TGI (HL-60(TB) leukemia): 43.9 µM
GI50 (HCT-116 colon): 16 µM
TGI (HCT-116 colon): 29.5 µM
GI50 (RXF 393 renal): 6.86 µM
TGI (RXF 393 renal): 32.9 µM
GI50 (HCT-15 colon): 17 µM
TGI (HCT-15 colon): 35.4 µM
GI50 (UO-31 renal): 26.7 µM
TGI (UO-31 renal): > 100 µM
GI50 (OVCAR-4 ovarian): 59.7 µM
TGI (OVCAR-4 ovarian): > 100 µM
GI50 (NCI-H226 lung): 12.5 µM
TGI (NCI-H226 lung): 31 µM
GI50 (TK-10 renal): 2.43 µM
TGI (TK-10 renal): 9.67 µM
GI50 (SF-268 CNS): 24.8 µM
TGI (SF-268 CNS): > 100 µM
GI50 (COLO 205 colon): 29.3 µM
TGI (COLO 205 colon): > 100 µM
GI50 (RPMI-8226 leukemia): 9.37 µM
TGI (RPMI-8226 leukemia): 50 µM
GI50 (MCF7 breast): 10 µM
TGI (MCF7 breast): 29.8 µM
GI50 (NCI-H460 lung): 15 µM
TGI (NCI-H460 lung): 45.1 µM
GI50 (SN12C renal): 17.8 µM
TGI (SN12C renal): 41.5 µM
GI50 (NCI-H23 lung): 13.3 µM
TGI (NCI-H23 lung): 30.6 µM
GI50 (SR leukemia): 31.1 µM
TGI (SR leukemia): 96.1 µM
GI50 (OVCAR-5 ovarian): 24.2 µM
TGI (OVCAR-5 ovarian): 97.1 µM
GI50 (HOP-62 NSCLC): 29.6 µM
TGI (HOP-62 NSCLC): 79.5 µM
GI50 (HT29 colon): 41.2 µM
TGI (HT29 colon): > 100 µM
GI50 (SNB-75 CNS): 67.5 µM
TGI (SNB-75 CNS): > 100 µM
GI50 (HS 578T breast): 37.8 µM
TGI (HS 578T breast): > 100 µM
GI50 (PC-3 prostate): 17.6 µM
TGI (PC-3 prostate): 76.8 µM
GI50 (SK-OV-3 ovarian): 30.8 µM
TGI (SK-OV-3 ovarian): 80.7 µM
GI50 (A549 NSCLC): 20.8 µM
TGI (A549 NSCLC): > 100 µM
GI50 (U251 CNS): 16.9 µM
TGI (U251 CNS): 42.8 µM
GI50 (IGROV1 ovarian): 45 µM
TGI (IGROV1 ovarian): > 100 µM
GI50 (NCI-H522 lung): 44.5 µM
TGI (NCI-H522 lung): > 100 µM
GI50 (OVCAR-3 ovarian): 7.51 µM
TGI (OVCAR-3 ovarian): 25 µM
GI50 (MDA-MB-231 breast): 28.9 µM
TGI (MDA-MB-231 breast): > 100 µM
GI50 (NCI/ADR-RES ovarian): 18.1 µM
TGI (NCI/ADR-RES ovarian): 45.5 µM
GI50 (SK-MEL-28 melanoma): 47.8 µM
TGI (SK-MEL-28 melanoma): > 100 µM
GI50 (MDA-MB-435): 15.9 µM
TGI (MDA-MB-435): 37.5 µM
GI50 (M14 melanoma): 19.8 µM
TGI (M14 melanoma): 53.9 µM
GI50 (SF-295 CNS): 16.8 µM
TGI (SF-295 CNS): 37.5 µM
GI50 (A498 renal): 2.28 µM
TGI (A498 renal): 5.1 µM
GI50 (LOX IMVI melanoma): 11.4 µM
TGI (LOX IMVI melanoma): 25.2 µM
GI50 (ACHN renal): 21.9 µM
TGI (ACHN renal): 55.7 µM
GI50 (DU-145 prostate): 17.1 µM
TGI (DU-145 prostate): > 100 µM
GI50 (786-0 renal): 21.4 µM
TGI (786-0 renal): > 100 µM
GI50 (SNB-19 CNS): 35.2 µM
TGI (SNB-19 CNS): > 100 µM
GI50 (KM12 colon): 15.1 µM
TGI (KM12 colon): 36.5 µM
GI50 (CAKI-1 renal): 16.8 µM
TGI (CAKI-1 renal): 37.3 µM

CN(C)c1ccc(/C=c2/c3ccccc3n3c2cc(C24CC5CC(CC(C5)C2)C4)[n+]3C)cc1
TGI (CCRF-CEM leukemia): > 100 µM
TGI (HL-60(TB) leukemia): 0.666 µM
TGI (OVCAR-4 ovarian): 0.731 µM
TGI (NCI-H226 lung): 1.49 µM
TGI (TK-10 renal): 1.65 µM
TGI (SW-620 colon): 1.44 µM
TGI (COLO 205 colon): 0.32 µM
TGI (RPMI-8226 leukemia): > 100 µM
TGI (SN12C renal): 1.12 µM
TGI (OVCAR-5 ovarian): 1.61 µM
TGI (MOLT-4 leukemia): > 100 µM
TGI (SK-OV-3 ovarian): 1.48 µM
TGI (A549 NSCLC): 1.09 µM
TGI (EKVX NSCLC): 1.58 µM
TGI (OVCAR-3 ovarian): 1.6 µM
TGI (SK-MEL-28 melanoma): 2.16 µM
TGI (MDA-MB-435): 0.694 µM
TGI (A498 renal): 1.08 µM
TGI (ACHN renal): 1.23 µM
TGI (DU-145 prostate): 1.84 µM
TGI (786-0 renal): 0.658 µM
TGI (SNB-19 CNS): 1.36 µM
TGI (KM12 colon): 0.405 µM
TGI (CAKI-1 renal): 1.04 µM

COc1cc([C@@H]2c3cc4c(cc3C[C@@H]3COC(=O)C32)OCO4)cc(OC)c1O (some centres not stated)
TGI (K-562 leukemia): > 100 µM
TGI (CCRF-CEM leukemia): 0.0526 µM
TGI (UACC-257 melanoma): > 100 µM
TGI (RXF 393 renal): 0.0635 µM
TGI (UACC-62 melanoma): > 52.1 µM
TGI (HCT-15 colon): > 100 µM
TGI (MALME-3M melanoma): 0.07 µM
TGI (UO-31 renal): > 100 µM
TGI (NCI-H226 lung): > 59.9 µM
TGI (TK-10 renal): > 100 µM
TGI (SW-620 colon): > 100 µM
TGI (SF-268 CNS): > 32.6 µM
TGI (SF-539 CNS): 0.0443 µM
TGI (COLO 205 colon): 0.0933 µM
TGI (RPMI-8226 leukemia): 0.137 µM
TGI (MCF7 breast): 0.071 µM
TGI (SN12C renal): > 77.4 µM
TGI (NCI-H23 lung): > 100 µM
TGI (SR leukemia): 0.0503 µM
TGI (SK-MEL-5 melanoma): 1.04 µM
TGI (HOP-62 NSCLC): 24.3 µM
TGI (HOP-92 NSCLC): 34.9 µM
TGI (SK-OV-3 ovarian): 2.47 µM
TGI (A549 NSCLC): > 93.4 µM
TGI (U251 CNS): > 100 µM
TGI (IGROV1 ovarian): 0.0791 µM
TGI (M14 melanoma): > 100 µM
TGI (SF-295 CNS): 0.0585 µM
TGI (A498 renal): > 100 µM
TGI (LOX IMVI melanoma): 15.7 µM
TGI (ACHN renal): 23.5 µM
TGI (BT-549 breast): > 100 µM
TGI (KM12 colon): > 100 µM
TGI (CAKI-1 renal): 0.823 µM
